Consider eleven compounds from patent US8822517B2, “Arylosulfonamides for the treatment of CNS diseases” (Adamed SP. Z O.O., priority 2010, dated 2014).

One assay concerns sigma σ receptor. Description: Binding assay σ (non-selective), [3H]DTG, rat cerebral cortex. As to conditions: percent inhibition of control specific binding; compounds tested at 1×10^−6 M. The method, boiled down:
(§1)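 At 1×10^−6 M, compounds were assessed for their effect on specific radioligand binding, computed as total less nonspecific binding (excess unlabelled ligand present).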

Another assay concerns adrenergic α1 receptor. Description: Binding assay α1 (non-selective), [3H]prazosin, rat cerebral cortex. As to conditions: percent inhibition of control specific binding; compounds tested at 1×10^−6 M. Put shortly: as §1
For assay [1], the target named is T1, serotoninergic receptor 5-HT2C (Homo sapiens, UniProt P28335).
T1 construct: expressed in transfected cells; host or cells: HEK-293 cells
T1 sequence (P28335 33-458): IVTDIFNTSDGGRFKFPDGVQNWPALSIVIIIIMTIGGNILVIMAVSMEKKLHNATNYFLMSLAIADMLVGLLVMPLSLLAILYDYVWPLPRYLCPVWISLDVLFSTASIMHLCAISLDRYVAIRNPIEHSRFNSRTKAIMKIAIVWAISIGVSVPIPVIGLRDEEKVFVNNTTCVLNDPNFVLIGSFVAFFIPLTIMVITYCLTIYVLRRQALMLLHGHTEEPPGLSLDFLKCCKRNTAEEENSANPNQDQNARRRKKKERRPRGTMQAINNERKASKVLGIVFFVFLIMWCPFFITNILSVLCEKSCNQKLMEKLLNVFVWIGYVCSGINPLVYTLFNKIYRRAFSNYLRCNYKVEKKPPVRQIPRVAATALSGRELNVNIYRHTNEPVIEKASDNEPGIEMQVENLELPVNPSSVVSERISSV
Kind of assay: Binding assay 5-HT2C (h), [3H]mesulergine, HEK-293 cells. The settings on record: read-out: 5-HT2C [%]. Put shortly: as §1

For assay [2], the target named is T2, serotoninergic 5-HT1A receptor (Homo sapiens, UniProt P08908).
T2 sequence (P08908 1-422): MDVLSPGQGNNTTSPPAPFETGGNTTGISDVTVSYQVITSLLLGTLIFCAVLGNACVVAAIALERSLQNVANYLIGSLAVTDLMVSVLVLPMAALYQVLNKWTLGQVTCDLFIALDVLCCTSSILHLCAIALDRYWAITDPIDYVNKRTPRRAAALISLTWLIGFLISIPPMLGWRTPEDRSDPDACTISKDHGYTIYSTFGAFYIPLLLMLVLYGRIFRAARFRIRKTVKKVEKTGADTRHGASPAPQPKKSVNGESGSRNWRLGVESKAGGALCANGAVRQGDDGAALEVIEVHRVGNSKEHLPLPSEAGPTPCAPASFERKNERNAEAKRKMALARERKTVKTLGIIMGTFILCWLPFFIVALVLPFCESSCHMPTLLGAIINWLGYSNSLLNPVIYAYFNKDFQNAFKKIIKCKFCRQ
Description: Cellular functional assay, serotoninergic 5-HT1A receptor (agonism/antagonism). The class given is cell-based. The settings on record: for inhibition at 1 µM: CHO, read-out: 5-HT1A-antag. [%]; for activation at 1 µM: agonist effect, percent of control specific agonist response (100 nM 8-OH-DPAT for control), 1×10^−6 M, 5-HT1A (h), CHO cells, read-out: 5-HT1A-ag [%]. As for the experimental part: The compounds were tested at the concentration of 1×10^−6M.
In the Tables ag refers to agonism, and antag to antagonism).

The next assay addresses dopaminergic D3 receptor (Homo sapiens, UniProt P35462). Kind of assay: Binding assay D3 (h), [3H]methyl-spiperone, CHO cells. The arrangement: expressed in transfected cells; host or cells: CHO cells. As to conditions: read-out: D3 [%]. The method, boiled down:
as §1

The target of assay [3] is serotoninergic 5-HT6 receptor (Homo sapiens, UniProt P50406). Kind of assay: Binding assay 5-HT6 (h), [3H]LSD, CHO cells. The arrangement: expressed in transfected cells; host or cells: CHO cells. The settings on record: read-out: 5-HT6. The method, boiled down: as §1
In assay [4] the target is serotoninergic 5-HT7 receptor (Homo sapiens, UniProt P34969). Description: Binding assay 5-HT7 (h), [3H]LSD, CHO cells. As to conditions: read-out: 5-HT7. The arrangement: expressed in transfected cells; host or cells: CHO cells. The method, boiled down:
as §1

The target in assay [5] is T2, serotoninergic 5-HT1A receptor. Kind of assay: Binding assay 5-HT1A (h), [3H]8-OH-DPAT, HEK-293 cells. The arrangement: expressed in transfected cells; host or cells: HEK-293 cells. The settings on record: read-out: 5-HT1A. The method, boiled down: as §1
Assay [6] deals with histaminergic H1 receptor (Homo sapiens, UniProt P35367). Description: Binding assay H1 (h), [3H]pyrilamine, HEK-293 cells. The arrangement: expressed in transfected cells; host or cells: HEK-293 cells. The settings on record: read-out: H1 [%]. Put shortly: as §1
Chain of histaminergic H1 receptor (P35367 whole entry): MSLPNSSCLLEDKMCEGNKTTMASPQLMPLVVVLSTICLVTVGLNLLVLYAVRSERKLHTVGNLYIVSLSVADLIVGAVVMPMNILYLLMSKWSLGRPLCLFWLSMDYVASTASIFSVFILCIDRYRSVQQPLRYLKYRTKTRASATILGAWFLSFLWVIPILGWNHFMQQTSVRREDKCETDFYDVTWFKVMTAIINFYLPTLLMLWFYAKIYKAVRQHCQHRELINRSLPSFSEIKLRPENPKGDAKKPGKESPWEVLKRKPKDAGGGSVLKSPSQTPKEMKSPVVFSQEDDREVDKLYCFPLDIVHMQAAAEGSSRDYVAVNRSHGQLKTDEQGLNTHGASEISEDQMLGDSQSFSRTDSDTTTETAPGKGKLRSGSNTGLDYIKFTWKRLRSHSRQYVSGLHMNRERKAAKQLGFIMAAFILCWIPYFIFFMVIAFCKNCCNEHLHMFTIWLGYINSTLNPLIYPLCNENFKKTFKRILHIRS

Chain of serotoninergic 5-HT7 receptor (P34969 whole entry): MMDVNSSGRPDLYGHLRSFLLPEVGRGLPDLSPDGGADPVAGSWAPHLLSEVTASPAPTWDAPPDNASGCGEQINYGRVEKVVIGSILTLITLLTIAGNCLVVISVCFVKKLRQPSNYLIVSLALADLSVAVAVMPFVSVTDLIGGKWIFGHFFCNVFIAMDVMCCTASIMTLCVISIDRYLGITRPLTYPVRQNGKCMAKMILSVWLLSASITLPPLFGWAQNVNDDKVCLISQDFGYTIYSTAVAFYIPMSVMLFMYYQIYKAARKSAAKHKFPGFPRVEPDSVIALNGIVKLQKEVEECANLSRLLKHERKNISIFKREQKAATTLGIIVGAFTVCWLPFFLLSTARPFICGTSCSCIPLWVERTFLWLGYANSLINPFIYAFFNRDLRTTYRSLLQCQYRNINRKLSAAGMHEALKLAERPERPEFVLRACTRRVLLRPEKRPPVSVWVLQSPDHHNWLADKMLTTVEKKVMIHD
Chain of dopaminergic D3 receptor (P35462 whole entry): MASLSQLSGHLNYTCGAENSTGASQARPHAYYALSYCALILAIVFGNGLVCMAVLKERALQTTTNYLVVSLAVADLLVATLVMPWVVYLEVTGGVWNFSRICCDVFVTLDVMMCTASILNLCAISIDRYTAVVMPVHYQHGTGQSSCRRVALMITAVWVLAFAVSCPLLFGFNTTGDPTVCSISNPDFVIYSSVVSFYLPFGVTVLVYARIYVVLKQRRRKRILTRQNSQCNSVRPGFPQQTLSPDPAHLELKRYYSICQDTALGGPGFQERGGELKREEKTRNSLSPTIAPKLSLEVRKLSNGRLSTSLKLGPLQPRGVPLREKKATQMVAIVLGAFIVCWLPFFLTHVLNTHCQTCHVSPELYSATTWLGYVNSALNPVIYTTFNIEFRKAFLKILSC
Chain of serotoninergic 5-HT6 receptor (P50406 whole entry): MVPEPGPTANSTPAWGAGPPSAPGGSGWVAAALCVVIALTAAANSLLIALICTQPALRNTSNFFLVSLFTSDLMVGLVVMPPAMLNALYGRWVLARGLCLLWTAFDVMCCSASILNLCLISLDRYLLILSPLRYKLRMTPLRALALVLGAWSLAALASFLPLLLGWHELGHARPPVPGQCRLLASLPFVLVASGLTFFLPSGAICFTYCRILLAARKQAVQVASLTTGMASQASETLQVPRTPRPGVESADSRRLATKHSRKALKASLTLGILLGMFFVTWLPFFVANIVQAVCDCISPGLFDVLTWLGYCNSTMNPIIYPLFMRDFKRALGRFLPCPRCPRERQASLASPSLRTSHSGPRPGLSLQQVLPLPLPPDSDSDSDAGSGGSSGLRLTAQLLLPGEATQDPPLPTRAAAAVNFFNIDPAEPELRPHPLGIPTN

On to `O=S(=O)(NCCCCN1CCN(c2nsc3ccccc23)CC1)c1cc2ccc(Cl)cc2s1` [Compound 241, N-[4-[4-(1,2-Benzothiazol-3-yl)piperazin-1-yl]butyl]-6-chlorobenzothiophene-2-sulphonamide], for which the “σ [%]” value in the assay with sigma σ receptor came to 51%. Also, the “α1 [%]” value in the assay with adrenergic α1 receptor was 93%. Besides, the inhibition at 1 µM in [1] turned out to be 96%; in assay [2], 42%; on dopaminergic D3 receptor, 97%; in assay [3] it was 96%; in assay [4], 99%; in [5], 98%. In [6], the inhibition at 1 µM was 97%. The activation at 1 µM in [2] is 5%.

`O=S(=O)(NCCCCN1CCN(c2cccc3[nH]ccc23)CC1)c1ccc2ccccc2c1` [Compound 26, N-{4-[4-(1H-Indol-4-yl)piperazin-1-yl]butyl}naphthalene-2-sulphonamide]: the “σ [%]” value in the assay on sigma σ receptor worked out at 99%. Further, the “α1 [%]” value in the assay with adrenergic α1 receptor is given as 98%. In addition, the inhibition at 1 µM in [1] came out at 19%; in assay [2] it was 22%; on dopaminergic D3 receptor, 98%; in [3], 51%; in assay [4] it was 98%; in [5] it was 100%. Moreover, the inhibition at 1 µM in assay [6] came to 52%. In assay [2], the activation at 1 µM was 67%.

In the case of `O=S(=O)(NCCCCN1CCN(c2cccc3[nH]ccc23)CC1)c1cc2ccccc2s1` [Compound 33, N-{4-[4-(1H-Indol-4-yl)piperazin-1-yl]butyl}-1-benzothiophene-2-sulphonamide], in the assay with sigma σ receptor, the “σ [%]” value turned out to be 94%. In addition, the “α1 [%]” value with adrenergic α1 receptor is listed as 100%. Also, the inhibition at 1 µM is 27% in [1]; 24% in assay [2]; 101% on dopaminergic D3 receptor; 42% in assay [3]; 99% in assay [4]; 100% in assay [5]. Also, in [6], the inhibition at 1 µM came out at 56%. Besides, in assay [2], the activation at 1 µM was 63%.

With `O=c1[nH]c2ccc(S(=O)(=O)NCCCN3CCN(c4nsc5ccccc45)CC3)cc2o1` [Compound 8, N-(3-(4-(1,2-Benzothiazol-3-yl)piperazin-1-yl)propyl)-2-oxo-3H-1,3-benzoxazole-6-sulphonamide], the “σ [%]” value with sigma σ receptor amounted to 17%. The “α1 [%]” value in the assay with adrenergic α1 receptor is reported as 94%. In addition, the inhibition at 1 µM stood at 90% in assay [1]; 81% in assay [2]; 97% at dopaminergic D3 receptor; 91% in assay [3]; 97% in [4]; 100% in [5]. Also, the inhibition at 1 µM in assay [6] turned out to be 97%. Moreover, the activation at 1 µM in assay [2] was 14%.

Turning to `O=S(=O)(NCCCCN1CCN(c2cccc3[nH]ccc23)CC1)c1cccc(F)c1` [Compound 28, 3-Fluoro-N-{4-[4-(1H-indol-4-yl)piperazin-1-yl]butyl}benzenesulphonamide], in the assay with sigma σ receptor, the “σ [%]” value came out at 84%. The “α1 [%]” value in the assay on adrenergic α1 receptor stood at 92%. Further, the inhibition at 1 µM in assay [1] stood at 6%; in assay [2] it was 27%; on dopaminergic D3 receptor, 99%; in assay [3], 98%; in assay [4], 92%; in assay [5], 100%. In [6], the inhibition at 1 µM was 57%. The activation at 1 µM in assay [2] was determined as 63%.

For `O=S(=O)(NCCCCN1CCN(c2nsc3ccccc23)CC1)c1csc2ccccc12` [Compound 240, N-[4-[4-(1,2-Benzothiazol-3-yl)piperazin-1-yl]butyl]benzothiophene-3-sulphonamide], in the assay on sigma σ receptor, the “σ [%]” value is on record as 44%. In addition, the “α1 [%]” value in the assay on adrenergic α1 receptor turned out to be 96%. Moreover, the inhibition at 1 µM stood at 78% in assay [1]; 50% in [2]; 99% at dopaminergic D3 receptor; 98% in assay [3]; 97% in assay [4]; 98% in [5]. Besides, in [6], the inhibition at 1 µM is 92%. The activation at 1 µM in assay [2] was 9%.

With `Cc1c(S(=O)(=O)NCCCN2CCC(c3noc4cc(F)ccc34)CC2)sc2ccc(F)cc12` [Compound 102, 5-Fluoro-N-[3-[4-(6-fluoro-1,2-benzoxazol-3-yl)piperidin-1-yl]propyl]-3-methylbenzothiophene-2-sulphonamide], the “σ [%]” value with sigma σ receptor turned out to be 74%. In addition, the “α1 [%]” value in the assay on adrenergic α1 receptor is 99%. The inhibition at 1 µM in [1] was found to be 76%; in assay [2] it was 35%; on dopaminergic D3 receptor, 103%; in [3] it was 97%; in assay [4], 97%; in assay [5], 92%. The inhibition at 1 µM in assay [6] is 94%. The activation at 1 µM in assay [2] was 1%.

`Cc1c(S(=O)(=O)NCCCCN2CCN(c3noc4ccccc34)CC2)sc2ccc(F)cc12` [Compound 81, N-[4-[4-(1,2-Benzoxazol-3-yl)piperazin-1-yl]butyl]-5-fluoro-3-methylbenzothiophene-2-sulphonamide]: in the assay on sigma σ receptor, the “σ [%]” value was determined as 59%. In addition, in the assay on adrenergic α1 receptor, the “α1 [%]” value is listed as 96%. Also, the inhibition at 1 µM was 50% in assay [1]; 22% in [2]; 97% on dopaminergic D3 receptor; 98% in assay [3]; 99% in assay [4]; 92% in [5]. For the same compound, the inhibition at 1 µM in [6] came to 93%. Besides, the activation at 1 µM in assay [2] was determined as 5%.

Regarding `O=c1[nH]c2cccc(N3CCN(CCCNS(=O)(=O)c4cccc5ccccc45)CC3)c2[nH]1` [Compound 423, N-[3-[4-(2-oxo-1,3-dihydrobenzimidazol-4-yl)piperazin-1-yl]propyl]naphthalene-1-sulphonamide], the “σ [%]” value in the assay on sigma σ receptor is given as 9%. Moreover, in the assay on adrenergic α1 receptor, the “α1 [%]” value worked out at 91%. For the same compound, the inhibition at 1 µM in assay [1] was found to be 9%; in assay [2], 73%; on dopaminergic D3 receptor, 98%; in assay [3], 16%; in [4] it was 88%; in assay [5], 99%. Also, the inhibition at 1 µM in [6] was found to be 16%. For the same compound, in assay [2], the activation at 1 µM stood at 35%.

Consider `Cc1c(S(=O)(=O)NCCCCN2CCN(c3nsc4ccccc34)CC2)sc2ccc(F)cc12` [Compound 65, N-[4-[4-(1,2-Benzothiazol-3-yl)piperazin-1-yl]butyl]-5-fluoro-3-methylbenzothiophene-2-sulphonamide], for which the “σ [%]” value in the assay on sigma σ receptor was determined as 62%. In the assay on adrenergic α1 receptor, the “α1 [%]” value was determined as 95%. The inhibition at 1 µM in assay [1] was found to be 95%; in [2], 35%; at dopaminergic D3 receptor it was 74%; in assay [3] it was 97%; in assay [4] it was 98%; in [5], 100%. Further, the inhibition at 1 µM in assay [6] was 95%. In addition, the activation at 1 µM in [2] was 9%.

Take `O=c1[nH]c2ccc(S(=O)(=O)NCCCCN3CCN(c4noc5ccccc45)CC3)cc2o1` [Compound 16, N-(4-(4-(1,2-Benzoxazol-3-yl)piperazin-1-yl)butyl)-2-oxo-3H-1,3-benzoxazole-6-sulphonamide]: the “σ [%]” value with sigma σ receptor worked out at 2%. Moreover, in the assay on adrenergic α1 receptor, the “α1 [%]” value was found to be 101%. For the same compound, the inhibition at 1 µM was 53% in assay [1]; 91% in [2]; 99% at dopaminergic D3 receptor; 94% in [3]; 99% in assay [4]; 93% in assay [5]. The inhibition at 1 µM in [6] was determined as 97%. Moreover, the activation at 1 µM in assay [2] is -14%.
